“And” between values parts separate entries of the source, which are not always exact repeats. Equal values may be shown once. Read-outs that look alike come from different tables or passages of the source.
Key:
[1] = target: recombinant SARS-Cov-2 M^pro (Severe acute respiratory syndrome coronavirus 2 (2019-nCoV) (SARS-CoV-2), UniProt P0DTD1); test: biochemical
[2] = test system: normal human bronchial epithelial cells (NHBE); test: Cellular cytotoxicity by MTT in normal human bronchial epithelial cells; settings: for CC50: read-out: CC50 NHBE, MTT
[3] = test system: infectious SARS-CoV-2 (isolate USA-WA1/2020); test: microbe, parasite or virus in culture; format: cell-based; settings: for EC50: Severe acute respiratory syndrome coronavirus 2, Vero C1008, Vero E6 cells, footnote b: drop in viral titer/incomplete inhibition, read-out: EC50 Plaque
[4] = test system: infectious SARS-CoV-2 (isolate USA-WA1/2020); test: Antiviral assay, cytopathic effect by MTT in Vero E6 cells; format: cell-based; settings: for EC50: Severe acute respiratory syndrome coronavirus 2, Vero C1008
Vero E6 cells = test: Cellular cytotoxicity by MTT in Vero E6 cells; settings: for cytotoxicity: Vero E6 and NHBE cells; for CC50: read-out: CC50 Vero E6, absence of virus
[5] = read-out: IC50 (μM), inhibition of SARS-CoV-2 M^pro, Table 1, 100 nM M^pro, triplicate, perampanel: fluorescence of compound interfered with assay
[6] = read-out: IC50 (μM), inhibition of SARS-Cov-2 M^pro, Table 4
[7] = IC50 (μM), inhibition of SARS-Cov-2 M^pro, Table 4

## N#Cc1ccccc1-c1cc(-c2cccc(Cl)c2)c(=O)n(-c2cccnc2)c1 [Compound 6, 2-(3-(3-Chlorophenyl)-2-oxo-2H-[1,3′-bipyridin]-5-yl)benzonitrile]
[1]; read-out: IC50
  IC50: 10 µM
[1]; [5]
  IC50: 9.99 ± 2.5 µM

## O=c1[nH]cc(-c2cc(-c3cccc(Cl)c3)c(=O)n(-c3cccnc3)c2)c(=O)[nH]1 [Compound 8, 5-(3-(3-Chlorophenyl)-2-oxo-2H-[1,3′-bipyridin]-5-yl)pyrimidine-2,4(1H,3H)-dione]
[1]; read-out: IC50
  IC50: 6.4 µM
[1]; [6]
  IC50: 6.38 ± 1.21 µM

## N#Cc1ccccc1-c1cc(-c2cccc(Cl)c2)c(=O)n(-c2ccc[n+]([O-])c2)c1 [Compound 10]
[1]; [6]
  IC50: 15.6 ± 2.37 µM

## N#Cc1ccccc1-c1cc(-c2cc(Cl)cc(Cl)c2)c(=O)n(-c2ccc[n+]([O-])c2)c1 [Compound 11]
[1]; [6]
  IC50: 5 to 20 µM

## N#Cc1ccccc1-c1cc(-c2cc(Cl)cc(OCc3ccccc3)c2)c(=O)n(-c2cccnc2)c1 [Compound 14, 2-(3-(3-(Benzyloxy)-5-chlorophenyl)-2-oxo-2H-[1,3′-bipyridin]-5-yl)benzonitrile]
[1]; read-out: IC50
  IC50: 0.28 µM
[1]; [5]
  IC50: 0.28 ± 0.05 µM
[1]; [6]
  IC50: 0.28 ± 0.05 µM

## COCCOc1cc(Cl)cc(-c2cc(-c3ccccc3C#N)cn(-c3cccnc3)c2=O)c1 [Compound 16, 2-(3-(3-Chloro-5-(2-methoxyethoxy)phenyl)-2-oxo-2H-[1,3′-bipyridin]-5-yl)benzonitrile]
[1]; [5]
  IC50: 0.47 ± 0.02 µM
[1]; [6]
  IC50: 0.47 ± 0.02 µM

## N#Cc1ccccc1-c1cc(-c2cc(Cl)cc(OCCc3ccccc3)c2)c(=O)n(-c2cccnc2)c1 [Compound 17, 2-(3-(3-Chloro-5-phenethoxyphenyl)-2-oxo-2H-[1,3′-bi-pyridin]-5-yl)benzonitrile]
[1]; read-out: IC50
  IC50: 0.51 µM
[1]; [5]
  IC50: 0.51 ± 0.02 µM
[1]; [6]
  IC50: 0.51 ± 0.015 µM

## COc1cc(Cl)cc(-c2cc(-c3c[nH]c(=O)[nH]c3=O)cn(-c3cccnc3)c2=O)c1 [Compound 18, 5-(3-(3-Chloro-5-methoxyphenyl)-2-oxo-2H-[1,3′-bipyridin]-5-yl)pyrimidine-2,4(1H,3H)-dione]
[1]; read-out: IC50
  IC50: 1.2 µM
[1]; [5]
  IC50: 1.2 ± 0.03 µM
[1]; [6]
  IC50: 1.2 ± 0.03 µM

## N#Cc1cccc(-c2cc(-c3c[nH]c(=O)[nH]c3=O)cn(-c3cccnc3)c2=O)c1 [Compound 19]
[1]; [6]
  IC50: 10 µM

## COc1cc(F)cc(-c2cc(-c3c[nH]c(=O)[nH]c3=O)cn(-c3cccnc3)c2=O)c1 [Compound 20]
[1]; [6]
  IC50: 10 to 100 µM

## O=c1[nH]cc(-c2cc(-c3cc(Cl)cc(OCc4ccccc4)c3)c(=O)n(-c3cccnc3)c2)c(=O)[nH]1 [Compound 21]
[1]; read-out: IC50
  IC50: 0.128 µM
[1]; [6]
  IC50: 0.128 ± 0.015 µM

## COc1ccc(-c2cc(-c3cccc(Cl)c3)c(=O)n(-c3cccnc3)c2)c(C#N)n1 [Compound 22]
[1]; [6]
  IC50: 10 to 100 µM

## N#Cc1[nH]c(=O)ccc1-c1cc(-c2cccc(Cl)c2)c(=O)n(-c2cccnc2)c1 [Compound 23]
[1]; [6]
  IC50: 10 µM

## CCCCOc1cc(Cl)cc(-c2cc(-c3c[nH]c(=O)[nH]c3=O)cn(-c3cccnc3)c2=O)c1 [Compound 25, 5-(3-(3-Butoxy-5-chlorophenyl)-2-oxo-2H-[1,3′-bipyridin]-5-yl)pyrimidine-2,4(1H,3H)-dione]
[1]; [5]
  IC50: 0.25 ± 0.09 µM
[1]; [6]
  IC50: 0.25 ± 0.089 µM

## CC(C)CCOc1cc(Cl)cc(-c2cc(-c3c[nH]c(=O)[nH]c3=O)cn(-c3cccnc3)c2=O)c1 [Compound 26, 5-(3-(3-Chloro-5-(isopentyloxy)phenyl)-2-oxo-2H-[1,3′-bipyridin]-5-yl)pyrimidine-2,4(1H, 3H)-dione]
[1]; [5]
  IC50: 0.19 ± 0.03 µM
[1]; [6]
  IC50: 0.19 ± 0.026 µM

## CC(C)(O)CCOc1cc(Cl)cc(-c2cc(-c3c[nH]c(=O)[nH]c3=O)cn(-c3cccnc3)c2=O)c1 [Compound 28]
[1]; [6]
  IC50: 0.25 to 0.5 µM

## O=c1[nH]cc(-c2cc(-c3cc(Cl)cc(OCCc4ccccc4)c3)c(=O)n(-c3cccnc3)c2)c(=O)[nH]1 [Compound 29, 5-(3-(3-Chloro-5-phenethoxyphenyl)-2-oxo-2H-[1,3′-bipyridin]-5-yl)pyrimidine-2,4(1H, 3H)-dione]
[1]; read-out: IC50
  IC50: 0.11 µM
[1]; [5]
  IC50: 0.11 ± 0.013 µM

## COc1cc(CCOc2cc(Cl)cc(-c3cc(-c4ccccc4C#N)cn(-c4cccnc4)c3=O)c2)cc(OC)c1 [Compound 30]
[1]; [6]
  IC50: > 1 µM

## Cc1ccccc1COc1cc(Cl)cc(-c2cc(-c3c[nH]c(=O)[nH]c3=O)cn(-c3cccnc3)c2=O)c1 [Compound 31, 5-(3-(3-Chloro-5-((2-methylbenzyl)oxy)phenyl)-2-oxo-2H-[1,3′-bipyridin]-5-yl)pyrimidine-2,4(1H,3H)-dione]
[1]; IC50
  IC50: 0.11 µM
[1]; [5]
  IC50: 0.1 ± 0.007 µM

## Cc1cccc(COc2cc(Cl)cc(-c3cc(-c4c[nH]c(=O)[nH]c4=O)cn(-c4cccnc4)c3=O)c2)c1 [Compound 32, 5-(3-(3-Chloro-5-((3-methylbenzyl)oxy)phenyl)-2-oxo-2H-[1,3′-bipyridin]-5-yl)pyrimidine-2,4(1H,3H)-dione]
[1]; IC50
  IC50: 0.1 µM
[1]; [5]
  IC50: 0.11 ± 0.035 µM
[1]; [6]
  IC50: 0.11 ± 0.035 µM

## CCNC(=O)COc1cc(Cl)cc(-c2cc(-c3ccccc3C#N)cn(-c3cccnc3)c2=O)c1 [Compound 33]
[1]; [6]
  IC50: 0.5 to 1 µM

## O=c1[nH]cc(-c2cc(-c3cc(Cl)cc(OCc4ccccc4F)c3)c(=O)n(-c3cccnc3)c2)c(=O)[nH]1 [Compound 34, 5-(3-(3-Chloro-5-((2-fluorobenzyl)oxy)phenyl)-2-oxo-2H-[1,3′-bipyridin]-5-yl)pyrimidine-2,4(1H,3H)-dione]
[1]; read-out: IC50
  IC50: 0.018 to 0.037 µM
[1]; [5]
  IC50: 0.024 ± 0.007 µM
[1]; [6]
  IC50: 0.024 µM

## O=c1[nH]cc(-c2cc(-c3cc(Cl)cc(OCc4cccc(F)c4)c3)c(=O)n(-c3cccnc3)c2)c(=O)[nH]1 [Compound 35, 5-(3-(3-Chloro-5-((3-fluorobenzyl)oxy)phenyl)-2-oxo-2H-[1,3′-bipyridin]-5-yl)pyrimidine-2,4(1H,3H)-dione]
[1]; read-out: IC50
  IC50: 0.018 to 0.037 µM
[1]; [6]
  IC50: 0.037 µM

## O=c1[nH]cc(-c2cc(-c3cc(Cl)cc(OCc4c(F)cccc4F)c3)c(=O)n(-c3cccnc3)c2)c(=O)[nH]1 [Compound 36, 5-(3-(3-Chloro-5-((2,6-difluorobenzyl)oxy)phenyl)-2-oxo-2H-[1,3′-bipyridin]-5-yl)pyrimidine-2,4(1H,3H)-dione]
[1]; read-out: IC50
  IC50: 0.018 to 0.037 µM
[1]; [6]
  IC50: 0.036 µM

## O=c1[nH]cc(-c2cc(-c3cc(Cl)cc(OCc4ccccc4Cl)c3)c(=O)n(-c3cccnc3)c2)c(=O)[nH]1 [Compound 37, 5-(3-(3-Chloro-5-((2-chlorobenzyl)oxy)phenyl)-2-oxo-2H-[1,3′-bipyridin]-5-yl)pyrimidine-2,4(1H,3H)-dione]
[2]
  CC50: 2000 ± 100 nM
[3]
  antiviral activity in the viral plaque assay: showed activity
  EC50: 11300 nM
[4]
  antiviral activity in the MTT assay: lacked antiviral activity
Vero E6 cells
  cytotoxicity: greatest cytotoxicity
  CC50: 1700 ± 900 nM

## N#Cc1ccccc1-c1cc(-c2cc(Cl)cc(OCC3CC3)c2)c(=O)n(-c2cccnc2)c1 [Compound 39, 2-(3-(3-Chloro-5-(cyclopropylmethoxy)phenyl)-2-oxo-2H-[1,3′-bipyridin]-5-yl)benzonitrile]
[2]
  CC50: > 100000 nM
[4]; Vero E6 cells, MOI 0.01, 72 h, NA = not active, read-out: EC50 MTT
  EC50: 2000 ± 700 nM
[4]; read-out: EC50, MTT assay
  EC50: ~1000 nM
Vero E6 cells
  cytotoxicity: no cytotoxicity to the highest concentration tested (100 μM)
  CC50: > 100000 nM

## O=c1[nH]cc(-c2cc(-c3cc(Cl)cc(OCC4CC4)c3)c(=O)n(-c3cccnc3)c2)c(=O)[nH]1 [Compound 40, 5-(3-(3-Chloro-5-(cyclopropylmethoxy)phenyl)-2-oxo-2H-[1,3′-bipyridin]-5-yl)pyrimidine-2,4(1H,3H)-dione]
[1]; [7]
  IC50: ~290 µM

## O=c1[nH]cc(-c2cc(-c3cc(Cl)cc(OCC4CC4)c3)c(=O)n(-c3cccnc3)c2)c(=O)[nH]1 [Compound 43]
[1]; [6]
  IC50: 0.037 ± 0.004 µM

## O=c1[nH]cc(-c2cc(-c3cc(F)c(F)c(OCc4ccccc4F)c3)c(=O)n(-c3cccnc3)c2)c(=O)[nH]1 [Compound 45]
[1]; [6]
  IC50: 0.03 ± 0.004 µM

## O=c1[nH]cc(-c2cc(-c3cc(Cl)cc(OCc4ccccc4)c3)c(=O)n(-c3cccnc3)c2)c(=O)[nH]1 [Compound 46, 5-(3-(3-(Benzyloxy)-5-chlorophenyl)-2-oxo-2H-[1,3′-bipyridin]-5-yl)pyrimidine-2,4(1H,3H)-dione]
[2]
  CC50: 17500 ± 5500 nM
[3]
  antiviral activity in the viral plaque assay: antiviral activity was found
  EC50: 3200 nM
Vero E6 cells
  CC50: 12300 ± 7000 nM

## N#Cc1ccccc1-c1cc(-c2cc(Cl)cc(OCCC(F)(F)F)c2)c(=O)n(-c2cccnc2)c1 [Compound 47, 2-(3-(3-Chloro-5-(3,3,3-trifluoropropoxy)phenyl)-2-oxo-2H-[1,3′-bipyridin]-5-yl)benzonitrile]
[2]; compared with 39
  cytotoxicity towards the NHBE cells: more cytotoxic
[2]
  CC50: 25000 ± 5000 nM
Vero E6 cells
  CC50: 22000 ± 8000 nM

## O=c1[nH]cc(-c2cc(-c3cc(Cl)cc(OCc4ccsc4Cl)c3)c(=O)n(-c3cccnc3)c2)c(=O)[nH]1 [Compound 49]
[1]; [6]
  IC50: 0.0265 ± 0.004 µM

## N#Cc1ccccc1-c1cc(-c2ccccn2)cn(-c2ccccc2)c1=O [Perampanel, perampanel, reference compound]
[1]; IC50
  IC50: 100 to 250 µM and > 100 µM
[1]; IC50 (μM), inhibition of SARS-CoV-2 M^pro, Table 1, 100 nM M^pro, triplicate, perampanel: fluorescence of compound interfered with assay
  IC50: 100 to 250 µM
[1]; [7]
  IC50: 100 µM

## CCC(CC)COC(=O)[C@H](C)N[P@](=O)(OC[C@H]1O[C@@](C#N)(c2ccc3c(N)ncnn23)[C@H](O)[C@@H]1O)Oc1ccccc1 [remdesivir, reference compound]
[2]
  CC50: 41000 ± 2000 nM
Vero E6 cells
  CC50: 72000 ± 28000 nM

From patent publication US20240092759A1, “Non-Covalent Inhibitors of the Main Protease of SARS-CoV-2 and Methods of Use” (YALE UNIVERSITY, priority 2021, published 2024)
